The target in the experiment is T1, Glutamate carboxypeptidase 2 [44-750] (Homo sapiens, UniProt Q04609).
T1 construct: 44-750
Description: IC50 Assay. The following applies: pH 7.4; 37 °C. As for the experimental part: Inhibitors were made in TRIS buffer (50mM Tris pH 7.4 containing 1% Triton X-100). Working solutions of purified GCPII (50ug/mL) were diluted in TRIS buffer to provide from 15% to 20% conversion of substrate to product in the absence of inhibitor. The incubation mixture (final volume 250μL) contained either 25μL of an inhibitor solution or 25μL TRIS buffer to 175μ TRIS buffer in a test tube, followed by the addition of PABGgG (25μL, […]). The enzymatic reaction was initiated by the addition of 25μL of the GCPII working solution and allowed to proceed for 15min with constant shaking at 37°C. The reaction was quenched by the addition of 25μL methanolic TFA (2% trifluoroacetic acid by volume in methanol) followed by vortexing. The quenched mixture was immediately buffered by the addition of 25μL K2HPO4 (0.1M), vortexed, and centrifuged.

SMILES strings stand for the structures. Bounds are passed on as bounds.

T1 sequence (Q04609 44-750): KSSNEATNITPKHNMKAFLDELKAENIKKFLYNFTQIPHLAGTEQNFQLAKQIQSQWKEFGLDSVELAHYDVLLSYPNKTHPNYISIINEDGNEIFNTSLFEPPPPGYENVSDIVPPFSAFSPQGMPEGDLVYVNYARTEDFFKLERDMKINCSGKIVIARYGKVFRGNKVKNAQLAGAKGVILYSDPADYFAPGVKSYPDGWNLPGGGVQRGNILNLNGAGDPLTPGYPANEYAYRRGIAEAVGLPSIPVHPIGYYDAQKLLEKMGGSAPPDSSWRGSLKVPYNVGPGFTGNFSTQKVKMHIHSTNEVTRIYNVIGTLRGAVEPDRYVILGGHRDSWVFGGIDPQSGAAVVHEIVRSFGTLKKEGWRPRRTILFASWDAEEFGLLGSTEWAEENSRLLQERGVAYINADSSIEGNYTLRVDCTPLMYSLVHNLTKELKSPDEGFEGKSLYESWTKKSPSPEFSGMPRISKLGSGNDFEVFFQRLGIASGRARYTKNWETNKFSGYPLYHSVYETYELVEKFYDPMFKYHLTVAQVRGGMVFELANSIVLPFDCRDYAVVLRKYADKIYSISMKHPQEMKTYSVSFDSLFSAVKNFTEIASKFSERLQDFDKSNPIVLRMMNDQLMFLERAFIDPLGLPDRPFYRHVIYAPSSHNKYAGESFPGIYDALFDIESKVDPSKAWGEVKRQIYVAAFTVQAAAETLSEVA

Regarding `O=C(O)CC[C@H](NS(=O)(=O)NC[C@H](NC(=O)c1ccccc1)C(=O)O)C(=O)O` [(S)-2-((N-((S)-2-benzamido-2-carboxyethyl)sulfamoyl)amino)pentanedioic acid (2b)], the IC50 (commonly the concentration that inhibits the measured activity by half) was above 100 µM.

Source of the values: BindingDB's records for doi:10.1111/cbdd.12174 (Washington State University At Pullman, 2013).
